Data on five compounds can be found in ChEMBL document CHEMBL1131937 (Bioorg Med Chem Lett, 1999).

By Ki is commonly meant the equilibrium dissociation constant of an inhibitor or competing ligand from its target.

For experiment [1], the target named is T1, Adrenergic receptor alpha-2 (Rattus norvegicus, UniProt P22086+P19328+P22909).
T1 sequence (P22086 whole entry): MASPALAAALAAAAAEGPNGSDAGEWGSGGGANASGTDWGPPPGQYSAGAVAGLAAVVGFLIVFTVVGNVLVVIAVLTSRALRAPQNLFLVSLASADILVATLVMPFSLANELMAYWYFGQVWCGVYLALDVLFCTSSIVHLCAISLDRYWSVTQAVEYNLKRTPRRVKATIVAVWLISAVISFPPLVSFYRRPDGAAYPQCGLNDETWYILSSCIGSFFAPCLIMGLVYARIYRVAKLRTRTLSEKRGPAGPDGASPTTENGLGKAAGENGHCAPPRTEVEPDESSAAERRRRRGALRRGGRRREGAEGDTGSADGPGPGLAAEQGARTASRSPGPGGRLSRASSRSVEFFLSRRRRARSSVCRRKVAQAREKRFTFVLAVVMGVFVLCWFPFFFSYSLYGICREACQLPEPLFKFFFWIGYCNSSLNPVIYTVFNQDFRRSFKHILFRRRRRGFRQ
T1 sequence (P19328 whole entry): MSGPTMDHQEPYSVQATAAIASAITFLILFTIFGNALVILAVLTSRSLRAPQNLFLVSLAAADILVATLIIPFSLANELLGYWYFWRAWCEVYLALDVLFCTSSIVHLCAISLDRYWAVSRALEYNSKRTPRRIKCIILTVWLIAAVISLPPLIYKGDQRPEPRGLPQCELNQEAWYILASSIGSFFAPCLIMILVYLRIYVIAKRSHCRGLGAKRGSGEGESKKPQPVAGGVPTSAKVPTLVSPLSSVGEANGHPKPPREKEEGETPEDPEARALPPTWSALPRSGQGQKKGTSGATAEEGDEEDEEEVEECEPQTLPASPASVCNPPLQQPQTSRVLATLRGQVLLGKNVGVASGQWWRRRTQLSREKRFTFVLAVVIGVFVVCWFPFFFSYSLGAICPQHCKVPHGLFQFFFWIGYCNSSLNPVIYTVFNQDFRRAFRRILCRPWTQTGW
T1 sequence (P22909 whole entry): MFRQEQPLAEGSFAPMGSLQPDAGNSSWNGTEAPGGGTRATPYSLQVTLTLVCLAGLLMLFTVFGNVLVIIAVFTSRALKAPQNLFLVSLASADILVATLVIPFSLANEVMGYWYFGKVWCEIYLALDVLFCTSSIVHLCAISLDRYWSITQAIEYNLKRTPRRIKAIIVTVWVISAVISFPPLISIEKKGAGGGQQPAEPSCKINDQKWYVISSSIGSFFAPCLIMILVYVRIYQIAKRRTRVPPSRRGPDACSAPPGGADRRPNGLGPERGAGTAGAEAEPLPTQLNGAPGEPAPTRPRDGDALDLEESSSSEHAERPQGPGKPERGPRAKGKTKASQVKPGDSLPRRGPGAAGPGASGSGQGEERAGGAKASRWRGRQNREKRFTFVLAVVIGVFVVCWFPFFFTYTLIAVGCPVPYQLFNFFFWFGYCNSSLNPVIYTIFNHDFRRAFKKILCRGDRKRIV
Kind of experiment: Inhibition of [3H]clonidine binding to the rat alpha-2-adrenoceptor. It counts as protein assay.

Experiment [2] is described as follows: Relative affinity for alpha-2-adrenoceptor and phenylethanolamine N-methyl-transferase (PNMT). Also noted: reference not given here.

Compound `N#Cc1ccc2c(c1)CNC(C(F)(F)F)C2` (stereo not given) yielded an inhibitory constant (Ki) in experiment [1] of 2900 µM. In addition, the Selectivity in experiment [2] turned out to be 220.
The corresponding values for `O=[N+]([O-])c1ccc2c(c1)CNC(C(F)(F)F)C2` (stereo not given) are 1500 µM and 750.
In the case of `C[C@H]1Cc2sc3ccccc3c2CN1`, in experiment [1], the Ki was found to be 1400 µM. In addition, the Selectivity in experiment [2] was found to be 4100.
In turn, `NS(=O)(=O)c1ccc2c(c1)CN[C@H](C(F)(F)F)C2` came in with a Ki in experiment [1] of 400 µM. For the same compound, the Selectivity in experiment [2] came to 26.
In the same order, the values of `FC(F)(F)C1Cc2ccc(Br)cc2CN1` (stereo not given) are greater than 1000 µM and greater than 1900.
